ChEMBL document CHEMBL4420062, “Tfpi inhibitors and methods of use” (2013)
pIC50: −log10 of the molar value. Where a SMILES comes first, the peptide text is derived from it. [ ]: non-standard residue; d: D form. Aib = CC(C)(N)C(=O)O

System: not listed separately
Test: Stability in human plasma assessed as parent compound remaining after 24 hrs
Assay type: ADME, cell-free
Settings: read-out: Stability

Compound | remaining at 24 h
CCN1C(=O)CC(SC[C@H](NC(=O)[C@H](CC(C)C)NC(=O)[C@H](CCCCN)NC(=O)[C@H](C)NC(=O)C(C)(C)NC(=O)[C@H](CC(C)C)NC(=O)[C@H](CCCNC(=N)N)NC(=O)[C@H](CCC(=O)O)NC(=O)[C@H](Cc2ccccc2)NC(=O)[C@H](Cc2ccc(O)cc2)NC(=O)CNC(=O)[C@H](CC(=O)O)N(C)C(=O)[C@@H](NC(=O)[C@H](Cc2cnc[nH]2)NC(=O)[C@@H](NC(=O)[C@H](CC(N)=O)NC(=O)[C@H]2CCCN2C(=O)[C@H](CCCCN)NC(=O)[C@H](CO)NC(=O)[C@H](CCC(N)=O)NC(=O)[C@H](Cc2ccccc2)NC(C)=O)C(C)C)C(C)C)C(N)=O)C1=O (some centres undefined) | 46.5%
CCN1C(=O)CC(SC[C@H](NC(=O)[C@H](CC(C)C)NC(=O)[C@H](CCCCN)NC(=O)[C@H](C)NC(=O)C(C)(C)NC(=O)[C@H](CC(C)C)NC(=O)[C@H](CCCNC(=N)N)NC(=O)[C@H](CCC(=O)O)NC(=O)[C@H](Cc2ccccc2)NC(=O)[C@H](Cc2ccc(O)cc2)NC(=O)[C@H](C)NC(=O)[C@H](CC(=O)O)NC(=O)[C@@H](NC(=O)[C@H](Cc2cnc[nH]2)NC(=O)[C@@H](NC(=O)[C@H](CC(N)=O)NC(=O)[C@H]2CCCN2C(=O)[C@H](CCCCN)NC(=O)[C@H](CO)NC(=O)[C@H](CCC(N)=O)NC(=O)[C@H](Cc2ccccc2)NC(C)=O)C(C)C)C(C)C)C(N)=O)C1=O (some centres undefined) | 17.9%
CC(=O)N[C@@H](Cc1ccccc1)C(=O)N[C@@H](CCC(N)=O)C(=O)N[C@@H](CO)C(=O)N[C@@H](CCCCN)C(=O)N1CCC[C@@H]1C(=O)N[C@@H](CC(N)=O)C(=O)N[C@H](C(=O)N[C@@H](Cc1cnc[nH]1)C(=O)N[C@H](C(=O)N[C@@H](CC(=O)O)C(=O)N[C@H](C)C(=O)N[C@@H](Cc1ccc(O)cc1)C(=O)N[C@@H](Cc1ccccc1)C(=O)N[C@@H](CCC(=O)O)C(=O)N[C@@H](CCCNC(=N)N)C(=O)N[C@@H](CC(C)C)C(=O)NC(C)(C)C(=O)N[C@H]1CSSCCNC(=O)[C@H](CC(C)C)NC(=O)[C@H](CCCCN)NC1=O)C(C)(C)C)C(C)C | 16%
CC(C)C[C@H](NC(=O)[C@H](CCCCN)NC(=O)[C@H](C)NC(=O)C(C)(C)NC(=O)[C@H](CC(C)C)NC(=O)[C@H](CCCNC(=N)N)NC(=O)[C@H](CCC(=O)O)NC(=O)[C@H](Cc1ccccc1)NC(=O)[C@H](Cc1ccc(O)cc1)NC(=O)[C@@H](C)NC(=O)[C@H](CC(=O)O)NC(=O)[C@@H](NC(=O)[C@H](Cc1cnc[nH]1)NC(=O)[C@@H](NC(=O)[C@H](CC(N)=O)NC(=O)[C@H]1CCCN1C(=O)[C@H](CCCCN)NC(=O)[C@H](CO)NC(=O)[C@H](CCC(N)=O)NC(=O)[C@H](Cc1ccccc1)NS(=O)(=O)c1ccc2ccccc2c1)C(C)C)C(C)(C)C)C(N)=O | 105%
CC(=O)N[C@@H](Cc1ccccc1)C(=O)N[C@@H](CCC(N)=O)C(=O)N[C@@H](CO)C(=O)N[C@@H](CCCCN)C(=O)N1CCC[C@@H]1C(=O)N[C@@H](CC(N)=O)C(=O)N[C@H](C(=O)N[C@@H](Cc1cnc[nH]1)C(=O)N[C@H](C(=O)N[C@@H](CC(=O)O)C(=O)N[C@@H]1CSSC[C@@H](C(=O)N[C@@H](CCCNC(=N)N)C(=O)N[C@@H](CC(C)C)C(=O)N[C@@H](C)C(=O)N[C@@H](C)C(=O)N[C@@H](CCCCN)C(=O)N[C@@H](CC(C)C)C(N)=O)NC(=O)[C@H](Cc2ccccc2)NC(=O)[C@H](Cc2ccc(O)cc2)NC1=O)C(C)(C)C)C(C)C | 49.3%
CCN1C(=O)CC(SC[C@H](NC(=O)[C@H](CC(C)C)NC(=O)[C@H](CCCCN)NC(=O)[C@H](C)NC(=O)C(C)(C)NC(=O)[C@H](CC(C)C)NC(=O)[C@H](CCCNC(=N)N)NC(=O)[C@H](CCC(=O)O)NC(=O)[C@H](Cc2ccccc2)NC(=O)[C@H](Cc2ccc(O)cc2)NC(=O)CNC(=O)[C@@H]2CCCN2C(=O)[C@@H](NC(=O)[C@H](Cc2cnc[nH]2)NC(=O)[C@@H](NC(=O)[C@H](CC(N)=O)NC(=O)[C@H]2CCCN2C(=O)[C@H](CCCCN)NC(=O)[C@H](CO)NC(=O)[C@H](CCC(N)=O)NC(=O)[C@H](Cc2ccccc2)NC(C)=O)C(C)C)C(C)(C)C)C(N)=O)C1=O (some centres undefined) | 55.9%
CCN1C(=O)CC(SC[C@H](NC(=O)[C@H](CC(C)C)NC(=O)[C@H](CCCCN)NC(=O)[C@H](C)NC(=O)C(C)(C)NC(=O)[C@H](CC(C)C)NC(=O)[C@H](CCCNC(=N)N)NC(=O)[C@H](CCC(=O)O)NC(=O)[C@H](Cc2ccccc2)NC(=O)[C@H](Cc2ccc(O)cc2)NC(=O)CNC(=O)[C@H](Cc2cnc[nH]2)NC(=O)[C@@H](NC(=O)[C@H](Cc2cnc[nH]2)NC(=O)[C@@H](NC(=O)[C@H](CC(N)=O)NC(=O)[C@H]2CCCN2C(=O)[C@H](CCCCN)NC(=O)[C@H](CO)NC(=O)[C@H](CCC(N)=O)NC(=O)[C@H](Cc2ccccc2)NC(C)=O)C(C)C)C(C)C)C(N)=O)C1=O (some centres undefined) | 18.6%

Biological target: T1, Tissue factor pathway inhibitor (Homo sapiens, UniProt P10646)
T1 sequence (P10646 whole entry): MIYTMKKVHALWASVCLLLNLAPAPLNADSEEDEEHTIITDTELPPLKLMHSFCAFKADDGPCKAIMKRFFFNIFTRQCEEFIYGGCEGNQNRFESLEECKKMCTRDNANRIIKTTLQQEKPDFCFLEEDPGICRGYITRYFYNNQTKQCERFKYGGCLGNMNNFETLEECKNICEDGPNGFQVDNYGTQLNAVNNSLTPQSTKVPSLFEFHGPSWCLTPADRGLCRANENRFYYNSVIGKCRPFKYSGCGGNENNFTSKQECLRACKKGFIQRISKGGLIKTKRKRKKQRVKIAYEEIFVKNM
Test: Binding affinity to TFPI (unknown origin) incubated for […] using tracer peptide JBT0131 by screening ELISA
Settings: not given

Compound | pIC50
Ac-FQSKKNVFVFGYFERDRAKL-NH2 | < 5.30
Ac-FQSKKNVFVFGYFEGLRAKL-NH2 | < 5.30
Ac-FQSKKNVFVFGYFERLDAKL-NH2 | < 5.30
Ac-FQSKKNVFGFGYFERLRAKL-NH2 | < 5.30

Now from value to compound:

pIC50 | Compound
< 5.30 | Ac-FQSKKNVFDFGYFERLRAKL-NH2
< 5.30 | Ac-FQSKKNVFLFGYFERLRAKL-NH2
< 5.30 | Ac-FQSKKNVFVFGYFERFRAKL-NH2
< 5.30 | CC(=O)N[C@@H](Cc1ccccc1)C(=O)N[C@@H](CCC(N)=O)C(=O)N[C@@H](CO)C(=O)N[C@@H](CCCCN)C(=O)NCC(=O)N[C@@H](CC(N)=O)C(=O)N[C@H](C(=O)N[C@@H](Cc1ccccc1)C(=O)N[C@H](C(=O)N[C@@H](CC(=O)O)C(=O)NCC(=O)N[C@@H](Cc1ccc(O)cc1)C(=O)N[C@@H](Cc1ccccc1)C(=O)N[C@@H](CCC(=O)O)C(=O)N[C@@H](CCCNC(=N)N)C(=O)N[C@@H](CC(C)C)C(=O)NC(C)(C)C(=O)N[C@@H](C)C(=O)NC(C)(C)C(=O)N[C@@H](CC(C)C)C(N)=O)C(C)C)C(C)C (Ac-FQSKGNVFVDGYFERL[Aib]A[Aib]L-NH2)
< 5.30 | Ac-FQLKKNVFVFGYFERLRAKL-NH2
< 6.30 | CCCCCCCCCCCCCC(=O)NCCCC[C@H](NC(=O)[C@H](CO)NC(=O)[C@H](CCC(N)=O)NC(=O)[C@H](Cc1ccccc1)NC(=O)CCCCC)C(=O)N1CCC[C@@H]1C(=O)N[C@@H](CO)C(=O)N[C@H](C(=O)N[C@@H](Cc1cnc[nH]1)C(=O)N[C@H](C(=O)N[C@@H](CC(=O)O)C(=O)N[C@H](C)C(=O)N[C@@H](Cc1ccc(O)cc1)C(=O)N[C@@H](Cc1ccccc1)C(=O)N[C@@H](CCC(=O)O)C(=O)N[C@@H](CCCNC(=N)N)C(=O)N[C@@H](CC(C)C)C(=O)NC(C)(C)C(=O)N[C@@H](C)C(=O)N[C@@H](CCCCN)C(=O)N[C@@H](CC(C)C)C(N)=O)C(C)(C)C)C(C)C
< 6.30 | CCCCCCCCCCCCCC(=O)NCCCC[C@H](NC(=O)[C@@H](NC(=O)[C@H](Cc1cnc[nH]1)NC(=O)[C@@H](NC(=O)[C@H](CO)NC(=O)[C@H]1CCCN1C(=O)[C@H](CCCCN)NC(=O)[C@H](CO)NC(=O)[C@H](CCC(N)=O)NC(=O)[C@H](Cc1ccccc1)NC(=O)CCCCC)C(C)C)C(C)(C)C)C(=O)N[C@H](C)C(=O)N[C@@H](Cc1ccc(O)cc1)C(=O)N[C@@H](Cc1ccccc1)C(=O)N[C@@H](CCC(=O)O)C(=O)N[C@@H](CCCNC(=N)N)C(=O)N[C@@H](CC(C)C)C(=O)NC(C)(C)C(=O)N[C@@H](C)C(=O)N[C@@H](CCCCN)C(=O)N[C@@H](CC(C)C)C(N)=O
5.30 to 6.00 | Ac-FLSKKNVFVFGYFERLRAKL-NH2
< 5.78 | Ac-FQSLKNVFVFGYFERLRAKL-NH2
< 5.30 | Ac-FQSKKNVFVFGGFERLRAKL-NH2
< 5.30 | Ac-FFSKKNVFVFGYFERLRAKL-NH2
< 5.30 | Ac-FQSKKNVFVFGYFERLRFKL-NH2
< 5.30 | Ac-FQSKKNVFVFGYFEFLRAKL-NH2
